# Target: FABP4 (Homo sapiens, UniProt P15090)
# Assay: TdF (Temperature Dependence Fluorescence) assay, thermal shift, FABP4
# Assay type: binding
# Text: TdF (Temperature Dependence Fluorescence) Assay for FABP3 and FABP4
# The TdF assay was mainly conducted in the 96-well based CHROMO-4 real time fluorescence plate reader (BioRad). The Sypro Orange (Sigma-Aldrich), environmentally sensitive fluorescence dye, was used to monitor the protein folding-unfolding transition. Protein-ligand binding was gauged by the change (or shift) in the unfolding transition temperature (ΔTm) acquired at protein alone with respect to protein in the presence of ligand of interest.
# The compound of interest was first prepared in DMSO stock (typical concentration: 10 mM). […] Final percentage of DMSO resided in the sample was 2%. The sample plate was heated from 30° C. to 90° C. with thermal ramping rate of 1° C./min. The fluorescence signals were acquired with excitation and emission wavelengths centered at 490 and 560 nm respectively. The instrument thermal stability was ±0.2° C.
# Theoretical basis for TdF-based ligand binding affinity constant
# In brief, the binding constant of the ligand at the Tm is expressed as below:
# [formula] where To is the midpoint of unfolding for unliganded protein and Tm is the midpoint of unfolding in presence of ligand. [LTm] is free ligand at Tm. The ΔHu and ΔCpu are the enthalpy of unfolding and heat capacity change of unfolding for the protein respectively.
# The nonlinear regression fitting in general readily reaches convergence by properly constraining the initial values for the fitting parameters (e.g. the initial “guess” for the ΔHu was constrained to 120 kcal/mol; initial Yn and mn were set to 1 and zero to best represent the melting curve along the low temperature region; negative slope of −0.5 was initially chosen for mu; initial Tm was also constrained to 50° C.).
# [formula] (see Brandts et al and Mayhood et al, shown above) where ΔHL (T) is the van't Hoff enthalpy of ligand binding at temperature T and ΔCpL is the heat capacity upon ligand binding. For simplicity, the ΔCpL and ΔHL (T) were set to zero and −7 kcal/mol respectively. […] TdCD (Temperature-dependent Circular Dichroism) Assay for FABP3/4/5
# FABP4, sequence (P15090 whole entry, species assumed): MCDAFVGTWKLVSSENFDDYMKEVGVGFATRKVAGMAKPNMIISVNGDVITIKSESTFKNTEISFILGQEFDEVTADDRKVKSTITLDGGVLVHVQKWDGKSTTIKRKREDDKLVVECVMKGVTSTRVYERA
FABP4 TdF Kd,Kd [nM],SMILES
B (0.5 ≦ B < 0.001 μM),,"Cc1c(Cl)cccc1OC(C)c1cc(=O)n2nc(-c3ccccc3)nc2[nH]1 (single isomer, unassigned) [37-6]"
B (0.5 ≦ B < 0.001 μM),,"Cc1c(Cl)cccc1OC(C)c1cc(=O)n2nc(-c3ccccc3)nc2[nH]1 (single isomer, unassigned) [37-7]"
B (0.5 ≦ B < 0.001 μM),,CCc1ccc(OCc2cc(=O)n3nc(-c4ccccc4)nc3[nH]2)cc1 [1-3]
B (0.5 ≦ B < 0.001 μM),,O=c1cc(COc2cccc3c2CCC3)[nH]c2nc(-c3ccccc3)nn12 [1-6]
,> 500,O=c1cc(COc2ccc(C(F)(F)F)cc2)[nH]c2nc(-c3ccccc3)nn12 [1-7]
,> 500,O=c1cc(COc2ccc(Br)c(Cl)c2)[nH]c2nc(-c3ccccc3)nn12 [1-8]
B (0.5 ≦ B < 0.001 μM),,O=c1cc(COC2CCc3ccccc32)[nH]c2nc(-c3ccccc3)nn12 (centres unmarked) [1-9]
B (0.5 ≦ B < 0.001 μM),,O=c1cc(COc2cccc3c2CCCC3)[nH]c2nc(-c3ccccc3)nn12 [1-10]
B (0.5 ≦ B < 0.001 μM),,O=c1cc(Cn2ccc3c(Cl)cccc32)[nH]c2nc(-c3ccccc3)nn12 [1-11]
,> 500,O=c1cc(Cn2ncc3ccccc32)[nH]c2nc(-c3ccccc3)nn12 [1-12]
B (0.5 ≦ B < 0.001 μM),,O=c1cc(CN2CCCc3ccccc32)[nH]c2nc(-c3ccccc3)nn12 [1-13]
,> 500,O=c1cc(CN2Cc3ccccc3C2)[nH]c2nc(-c3ccccc3)nn12 [1-14]
,> 500,CN(Cc1cc(=O)n2nc(-c3ccccc3)nc2[nH]1)C1CCCCC1 [1-15]
B (0.5 ≦ B < 0.001 μM),,CN(Cc1cc(=O)n2nc(-c3ccccc3)nc2[nH]1)c1cccc(Br)c1 [1-16]
B (0.5 ≦ B < 0.001 μM),,O=c1cc(COc2ccccc2OC(F)(F)F)[nH]c2nc(-c3ccccc3)nn12 [1-18]
,> 500,O=c1cc(COc2cccnc2)[nH]c2nc(-c3ccccc3)nn12 [1-19]
,> 500,O=c1cc(COC2CCC2)[nH]c2nc(-c3ccccc3)nn12 [1-20]
B (0.5 ≦ B < 0.001 μM),,O=c1cc(COC2CCCCC2)[nH]c2nc(-c3ccccc3)nn12 [1-21]
,> 500,Cn1nc(C(F)(F)F)cc1OCc1cc(=O)n2nc(-c3ccccc3)nc2[nH]1 [1-22]
,> 500,N#Cc1cc(F)cc(OCc2cc(=O)n3nc(-c4ccccc4)nc3[nH]2)c1 [1-23]
B (0.5 ≦ B < 0.001 μM),,N#Cc1c(Cl)cccc1OCc1cc(=O)n2nc(-c3ccccc3)nc2[nH]1 [1-24]
,> 500,CC(C)c1cccc(OCc2cc(=O)n3nc(-c4ccccc4)nc3[nH]2)c1 [1-25]
,> 500,Cc1cccc(OCc2cc(=O)n3nc(-c4ccccc4)nc3[nH]2)c1C [1-26]
B (0.5 ≦ B < 0.001 μM),,Cc1ccc2ccccc2c1OCc1cc(=O)n2nc(-c3ccccc3)nc2[nH]1 [1-27]
,> 500,CN(C)c1cccc(OCc2cc(=O)n3nc(-c4ccccc4)nc3[nH]2)c1 [1-28]
,> 500,COc1ccc2c(c1)CN(Cc1cc(=O)n3nc(-c4ccccc4)nc3[nH]1)C2=O [1-29]

FABP4 TdF Kd,Kd [nM],SMILES
,> 500,O=c1cc(COc2ccc(I)cc2)[nH]c2nc(-c3ccccc3)nn12 [1-30]
B (0.5 ≦ B < 0.001 μM),,O=c1cc(COc2c(Cl)ccc(Cl)c2Cl)[nH]c2nc(-c3ccccc3)nn12 [1-31]
B (0.5 ≦ B < 0.001 μM),,COc1cc(OC)cc(OCc2cc(=O)n3nc(-c4ccccc4)nc3[nH]2)c1 [1-32]
B (0.5 ≦ B < 0.001 μM),,CCc1cccc(C)c1OCc1cc(=O)n2nc(-c3ccccc3)nc2[nH]1 [1-33]
,> 500,Cc1nc(-c2ccc(OCc3cc(=O)n4nc(-c5ccccc5)nc4[nH]3)c(F)c2)cs1 [1-34]
B (0.5 ≦ B < 0.001 μM),,Cc1ccc(C(C)C)cc1N(C)Cc1cc(=O)n2nc(-c3ccccc3)nc2[nH]1 [1-35]
,> 500,O=c1cc(CN2CCOc3ccccc32)[nH]c2nc(-c3ccccc3)nn12 [1-36]
,> 500,Cc1cc(OCc2cc(=O)n3nc(-c4ccccc4)nc3[nH]2)n(C)n1 [1-37]
,> 500,Cc1ccc(Br)c2ccn(Cc3cc(=O)n4nc(-c5ccccc5)nc4[nH]3)c12 [1-38]
B (0.5 ≦ B < 0.001 μM),,Cc1c(F)cccc1OCc1cc(=O)n2nc(-c3ccccc3)nc2[nH]1 [1-39]
,> 500,CC(C)(C)OCc1cc(=O)n2nc(-c3ccccc3)nc2[nH]1 [1-40]
,> 500,COc1ccc(OCc2cc(=O)n3nc(-c4ccccc4)nc3[nH]2)cc1OC [1-41]
,> 500,O=c1cc(COC2CCNCC2)[nH]c2nc(-c3ccccc3)nn12 [1-42]
,> 500,O=c1cc(CN2CCc3ccccc32)[nH]c2nc(-c3ccccc3)nn12 [1-43]
,> 500,Cc1csc(-c2ccc(OCc3cc(=O)n4nc(-c5ccccc5)nc4[nH]3)cc2)n1 [1-44]
,> 500,CN1CCC(OCc2cc(=O)n3nc(-c4ccccc4)nc3[nH]2)CC1 [1-45]
,> 500,O=c1cc(COc2ccccc2)[nH]c2nc(-c3ccccc3)nn12 [1-46]
,> 500,O=c1cc(COc2ccccn2)[nH]c2nc(-c3ccccc3)nn12 [1-47]
,> 500,O=c1ccccn1Cc1cc(=O)n2nc(-c3ccccc3)nc2[nH]1 [1-48]
,> 500,CC(=O)N1CCC(OCc2cc(=O)n3nc(-c4ccccc4)nc3[nH]2)CC1 [1-49]
,> 500,CN(Cc1cc(=O)n2nc(-c3ccccc3)nc2[nH]1)c1cccnc1Br [1-51]
B (0.5 ≦ B < 0.001 μM),,O=c1cc(CNC2CCc3c(Cl)cccc32)[nH]c2nc(-c3ccccc3)nn12 (centres unmarked) [1-52]
,> 500,CN(Cc1cc(=O)n2nc(-c3ccccc3)nc2[nH]1)C1Cc2ccccc2C1 [1-54]
B (0.5 ≦ B < 0.001 μM),,COc1c(Cl)cccc1OCc1cc(=O)n2nc(-c3ccccc3)nc2[nH]1 [1-55]
,> 500,O=c1cc(CN2CCCC2Cc2ccc(F)cc2)[nH]c2nc(-c3ccccc3)nn12 (centres unmarked) [1-56]
B (0.5 ≦ B < 0.001 μM),,O=c1cc(CN2CCCC2Cc2cccc(Cl)c2)[nH]c2nc(-c3ccccc3)nn12 (centres unmarked) [1-57]

FABP4 TdF Kd,Kd [nM],SMILES
B (0.5 ≦ B < 0.001 μM),,COc1cccc(C)c1OCc1cc(=O)n2nc(-c3ccccc3)nc2[nH]1 [1-58]
,> 500,O=c1cc(COc2cccc(C(F)(F)F)c2)[nH]c2nc(-c3ccccc3)nn12 [1-59]
B (0.5 ≦ B < 0.001 μM),,CCc1cccc(OCc2cc(=O)n3nc(-c4ccccc4)nc3[nH]2)c1 [1-60]
,> 500,O=c1cc(COc2ccc(Br)cc2)[nH]c2nc(-c3ccccc3)nn12 [1-61]
B (0.5 ≦ B < 0.001 μM),,O=c1cc(COc2ccccc2C(F)(F)F)[nH]c2nc(-c3ccccc3)nn12 [1-62]
B (0.5 ≦ B < 0.001 μM),,Cc1ccc(OCc2cc(=O)n3nc(-c4ccccc4)nc3[nH]2)cc1C [1-63]
,> 500,O=c1cc(COc2cccc(OC(F)(F)F)c2)[nH]c2nc(-c3ccccc3)nn12 [1-64]
,> 500,O=c1cc(COc2ccc(OC(F)(F)F)cc2)[nH]c2nc(-c3ccccc3)nn12 [1-65]
B (0.5 ≦ B < 0.001 μM),,CC(C)c1ccccc1OCc1cc(=O)n2nc(-c3ccccc3)nc2[nH]1 [1-66]
B (0.5 ≦ B < 0.001 μM),,O=c1cc(COc2cccc(Cl)c2Cl)[nH]c2nc(-c3ccccc3)nn12 [1-67]
B (0.5 ≦ B < 0.001 μM),,CCc1ccc(OCc2cc(=O)n3nc(-c4ccccc4)nc3[nH]2)c(C(C)(C)C)c1 [1-68]
B (0.5 ≦ B < 0.001 μM),,CCc1ccc(OCc2cc(=O)n3nc(-c4ccccc4)nc3[nH]2)c(OC)c1 [1-69]
B (0.5 ≦ B < 0.001 μM),,Cc1cc(OCc2cc(=O)n3nc(-c4ccccc4)nc3[nH]2)ccc1C(C)C [1-70]
,> 500,CC(C)(C)c1ccc(OCc2cc(=O)n3nc(-c4ccccc4)nc3[nH]2)c(Cl)c1 [1-71]
,> 500,COc1cc(CC(C)=O)ccc1OCc1cc(=O)n2nc(-c3ccccc3)nc2[nH]1 [1-72]
B (0.5 ≦ B < 0.001 μM),,O=c1cc(COc2ccccc2Br)[nH]c2nc(-c3ccccc3)nn12 [1-73]
,> 500,Cc1cc(C(C)(C)C)ccc1OCc1cc(=O)n2nc(-c3ccccc3)nc2[nH]1 [1-74]
,> 500,O=c1cc(COc2cccc3cnccc23)[nH]c2nc(-c3ccccc3)nn12 [1-75]
,> 500,O=c1cc(COC2CCOCC2)[nH]c2nc(-c3ccccc3)nn12 [1-76]
,> 500,O=c1cc(CN2CC[S+]([O-])CC2)[nH]c2nc(-c3ccccc3)nn12 [1-77]
,> 500,O=c1cc(CN2CCC(Cc3ccc(Cl)cc3)CC2)[nH]c2nc(-c3ccccc3)nn12 [1-78]
,> 500,O=c1cc(COC2CCSCC2)[nH]c2nc(-c3ccccc3)nn12 [1-79]
B (0.5 ≦ B < 0.001 μM),,O=c1cc(COc2cccc3ncccc23)[nH]c2nc(-c3ccccc3)nn12 [1-80]
B (0.5 ≦ B < 0.001 μM),,O=c1cc(CN2CCOc3c(Br)cccc32)[nH]c2nc(-c3ccccc3)nn12 [1-81]
B (0.5 ≦ B < 0.001 μM),,O=c1cc(CN2CCc3ccc(Br)cc32)[nH]c2nc(-c3ccccc3)nn12 [1-82]

# Reference: patent publication US8815875B2 (Merck Sharp & Dohme Corp., priority 2008, dated 2014)
